One test concerns the target T1, TDP-43 (Homo sapiens, UniProt Q13148).
T1 construct: added to whole cell lysate containing 5 mg protein; endogenous in cells; host or cells: MDA-MB-231 and PLC/PRF/5 whole cell lysates
The test can be described thus: Solid phase compound-protein complex pull-down with mass spectrometry protein identification. It is filed as binding. The following applies: precipitated proteins from PLC/PRF/5 and MDA-MB-231 cell lysates. On the procedure: MDA-MB-231 and PLC/PRF/5 cells were maintained at 37° C. in a CO2 incubator in Dulbecco's Modified Eagle's Medium (DMEM) supplemented with 10% fetal bovine serum (FBS) and 1% of penicillin/streptomycin (Invitrogen).
The cells were lysed in lysis buffer containing 20 mM 4-(2-hydroxyethyl)-1-piperazineethanesulfonic acid (HEPES), pH 7.5, 0.3% 3-[(3-cholamidopropyl)dimethylammonio]-1-propanesulfonate (CHAPS), 150 mM NaCl, (Sigma-Aldrich), and protease inhibitor cocktail (Roche) with rotation at 4° C. for one hour followed by centrifugation at 15000 for 20 minutes. Ten milligrams of ALT-59 dissolved in DMSO at 20 mM were added to whole cell lysate containing 5 mg protein and incubated on ice for one hour. Compound precipitates out due to high hydrophobicity. Compound-protein complex were spun down at 1000 rpm and washed 5 times with lysis buffer to remove unbound protein. The compound-protein complex were boiled in SDS-PAGE protein sample buffer (1×) (80 mM Tris-HCl, pH 6.8, 2% SDS, 10% Glycerol, 0.1% Bromophenol blue.
For silver staining, proteins were separated on a 10% SDS-PAGE gel. To prepare samples for protein identification using mass spectrometry, protein samples were run into stacking gel and the electrophoresis was stopped after samples were compressed into single bands. […]

The target in a further test is T2, TDP43-His (Homo sapiens, UniProt Q13148).
T2 construct: made in house; host or cells: E. coli Rosetta (DE3), vector pRETb/TDP43-His; protein not purified, read in whole cell lysate
T2 sequence (Q13148 whole entry): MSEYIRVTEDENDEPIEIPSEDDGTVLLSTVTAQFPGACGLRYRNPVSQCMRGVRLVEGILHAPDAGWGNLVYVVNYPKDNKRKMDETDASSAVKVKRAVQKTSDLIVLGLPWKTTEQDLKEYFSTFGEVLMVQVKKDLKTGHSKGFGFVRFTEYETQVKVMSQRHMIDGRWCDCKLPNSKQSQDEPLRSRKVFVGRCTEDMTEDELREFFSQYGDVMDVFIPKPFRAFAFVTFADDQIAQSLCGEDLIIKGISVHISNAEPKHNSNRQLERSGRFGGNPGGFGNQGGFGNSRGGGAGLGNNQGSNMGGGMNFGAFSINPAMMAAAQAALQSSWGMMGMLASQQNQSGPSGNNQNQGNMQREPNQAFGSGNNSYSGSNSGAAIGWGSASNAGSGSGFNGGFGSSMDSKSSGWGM
Put plainly: Expression of histidine-tagged TDP-43 in E. coli whole cell lysates. Type of test: cell-based. Particulars: 60 μM ALT-59 with 2 μg/ml PMBN, 0.5 mM IPTG, Rosetta (DE3) cells, Coomassie stain. On the procedure:
Rosetta (DE3) cells were transformed with pRETb/TDP43-His according manufacture's instruction. After the culture from a single colony reached O.D 0.6 with shaking at 37° C. for 5 hours, it was split into six equal cultures and treated as indicated in FIG. 3. (Lane 1) un-induced blank; (Lane 2) 0.5 mM IPTG, 60 μM DMSO; (Lane 3) 0.5 mM IPTG, 60 μM ALT-59; (Lane 4) 0.5 mM IPTG, 2 μg/ml PMBN; (Lane 5) 0.5 mM IPTG, 2 μg/ml PMBN, 30 μM ALT-59; (Lane 6) 0.5 mM IPTG, 2 μg/ml PMBN, 60 μM ALT-59. Cells were cultured overnight at 25° C. on a shaker and then collected, sonicated in protein sample buffer and boiled before loading on a 10% SDS-PAGE gel. Protein were visualized by Coomassie Brilliant Blue stain.

For the next test, the system named is Phe508del-CFTR. The test can be described thus: Phe508del-CFTR localization, immunofluorescence microscopy, primary bronchial epithelial cells of a cystic fibrosis patient. It is filed as cell-based, human. The following applies: primary bronchial epithelial cells homozygous for Phe508del-CFTR, 4 μM, 3 days. On the procedure:
MDA-MB-231 and U-87 MG cells were cultured on cover slips under the conditions as described above. Cells were treated with DMSO or 4 μM ALT-59 for 3 days. Primary human bronchial epithelial cells isolated from cystic fibrosis patient homozygous for Phe508del-CFTR (Lifeline Cell Technology) were cultured on cover slips in BronchiaLife Cell Culture Medium supplemented with BrochiaLife LifeFactors Kit (Lifeline Cell Technology) and maintained at 37° C. in a CO2 incubator. Cells were treated with DMSO, 4 μM ALT-59, 2 μM ALT-308, or 4 μM ALT-410 for 3 days.
Cells were fixed in 4% paraformaldehyde for 15 minutes and permeabilized in 0.1% Triton X-100 for 2 minutes. After being blocked in 5% BSA (Sigma-Aldrich), cells were incubated with anti-CFTR antibody (Alomone Labs) followed by Alexa Fluor 488 anti-rabbit secondary antibody. Reagents were buffered in GIBCO PBS (Phosphate-Buffered Saline). Images were taken using Carl Zeiss LSM 510 Laser Scanning Microscope. Parameters were set identical for all images.

For the next test, the system named is BACE1. The test can be described thus: Screening for ALT-59 derivatives with BACE1 protein levels as indicator, U-87 MG cells. Type of test: cell-based. The following applies: 2 days, concentrations as indicated in FIGS. 15-17. Here is the method:
Additional experiments were performed to screen for compounds with higher potency and the ability to penetrate blood brain barrier using BACE1 protein levels as an indicator. U-87 MG cells were cultured as described previously and treated for 2 days with compounds at concentrations as indicated in FIGS. 15-17. Cells were then subjected to Western blotting analysis using anti-BACE1 and anti-beta-actin antibodies.

The values that follow come from patent publication US20230095021A1, “MODULATORS OF TDP-43” (Alteron Therapeutics, Inc., priority 2019, published 2023).

T1 sequence (Q13148 whole entry): as above

For the compound `CN(C)c1ccc(C2Nc3ccc4ccccc4c3C3=C2C(=O)CC(C)(C)C3)cc1Br` (stereo not shown) [ALT-59, 5-(3-bromo-4-(dimethylamino)phenyl)-2,2-dimethyl-2,3,5,6-tetrahydrobenzo[a]phenanthridin-4(1H)-one], the “ALT-59 binding proteins identified by mass spectrometry” value at TDP-43 is listed as “TDP-43 (boxed) was ranked as the top hit”. Further, the TDP43-His protein expression result at TDP43-His is reported as “increased protein expression”. In addition, the “localization of Phe508del-CFTR on the plasma membrane” value in the test on Phe508del-CFTR is “increased localization of Phe508del-CFTR on the plasma membrane”. The BACE1 protein expression result with BACE1 is “capable of lowering BACE1 expression”.
